Where a name gives a salt, the structure may show the parent alone.
Legend:
V1a receptor = target: T1, V1a receptor (Rattus norvegicus, UniProt P30560); assay: V1a receptor antagonism in awake rat (oral administration), inhibition of AVP-induced vasopressure; type: in vivo; conditions: for AVP vasopressure inhibition effect after 8 hours since administration: 8 hours after administration; for maximum vasopressure inhibition rate: one third of the 3 mg/kg SR49059 dose, maximum after 2 to 6 hours since administration, 30 mU/kg AVP i.v.
T1 construct: from tissue; host or cells: whole animal: awake male Sprague-Dawley rats
Experimental: One day before evaluation of test compounds, a cannula for blood pressure measurement was inserted into left carotid artery, and a cannula for arginine vasopressin (AVP) administration was inserted into left cervical vein. Blood pressure of artery cannula was measured via pressure transducer during rats were awake. During evaluation of test compounds, elevation breadth of mean blood pressure resulting from intravenous administration of 30 mU/kg of AVP was determined as a vasopressure control, in advance. After test compound was suspended in 0.5% methylcellulose solution and orally administered at 1 to 3 mg/kg, 30 mU/kg of AVP was intravenously administered at fixed time points from 0.5 to 8 hours, and vasopressure value was measured. [Vasopressure inhibition rate (%) at each measurement point after administration]=[(A−B)/A]×100 Wherein, control vasopressure=A, and vasopressure value at each measurement point=B

male ICR mice = assay: Acute toxicity study, oral, male ICR mice; type: in vivo, mouse; conditions: single administration in 0.5% methylcellulose, observed 6 days
Experimental: Test compound suspended in 0.5% methylcellulose solution was orally administered to male ICR mice (body weight 25 to 35 g), which were separated into groups each having 5 mice, and body weight change and general symptom after 6 days since administration were observed. During the test period except for 17 to 20 hours before administration and after 2 hours since administration, mice were allowed to take feed and water ad libitum.

[1] = target: human vasopressin V1a receptor (Homo sapiens, UniProt P37288); assay: Receptor binding study, [3H]AVP displacement on CHO cell membranes, human V1a; conditions: [3H]AVP displacement, CHO cell membrane, 25° C., one hour; read-out: Human V1a Ki
How it was run: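 Membrane binding in 50 mM Tris-HCl pH 7.4 with MgCl2 and 0.1% BSA, incubated 1 h at 25° C. Bound ligand collected by rapid filtration on glass fiber filters, washed with ice-cold buffer, and counted for radioactivity. Nonspecific binding defined with 1 μM unlabeled AVP.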

[2] = target: human vasopressin V2 receptor (Homo sapiens, UniProt P30518); assay: Receptor binding study, [3H]AVP displacement on CHO cell membranes, human V2; conditions: [3H]AVP displacement, CHO cell membrane, 25° C., one hour; read-out: Human V2 Ki
How it was run: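 Membranes from CHO cells expressing human V2 receptor incubated with [3H]AVP (0.5-1.0 nM) and test compound at various concentrations in 50 mM Tris-HCl pH 7.4 with MgCl2 and 0.1% BSA, 1 h at 25 °C. Bound radioactivity counted after glass-fibre filtration; nonspecific binding defined with 1 μM unlabelled AVP.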

human vasopressin V2 receptor, sequence (P30518 whole entry): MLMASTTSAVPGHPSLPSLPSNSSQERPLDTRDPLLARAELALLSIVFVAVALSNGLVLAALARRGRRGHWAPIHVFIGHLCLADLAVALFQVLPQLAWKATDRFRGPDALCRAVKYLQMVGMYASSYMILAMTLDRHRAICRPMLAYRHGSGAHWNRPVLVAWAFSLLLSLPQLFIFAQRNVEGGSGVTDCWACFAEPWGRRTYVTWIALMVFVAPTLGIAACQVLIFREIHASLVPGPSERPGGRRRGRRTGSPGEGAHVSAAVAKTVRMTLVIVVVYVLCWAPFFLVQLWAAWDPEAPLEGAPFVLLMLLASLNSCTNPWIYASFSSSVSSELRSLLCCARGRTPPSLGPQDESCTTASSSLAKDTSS
human vasopressin V1a receptor, sequence (P37288 whole entry): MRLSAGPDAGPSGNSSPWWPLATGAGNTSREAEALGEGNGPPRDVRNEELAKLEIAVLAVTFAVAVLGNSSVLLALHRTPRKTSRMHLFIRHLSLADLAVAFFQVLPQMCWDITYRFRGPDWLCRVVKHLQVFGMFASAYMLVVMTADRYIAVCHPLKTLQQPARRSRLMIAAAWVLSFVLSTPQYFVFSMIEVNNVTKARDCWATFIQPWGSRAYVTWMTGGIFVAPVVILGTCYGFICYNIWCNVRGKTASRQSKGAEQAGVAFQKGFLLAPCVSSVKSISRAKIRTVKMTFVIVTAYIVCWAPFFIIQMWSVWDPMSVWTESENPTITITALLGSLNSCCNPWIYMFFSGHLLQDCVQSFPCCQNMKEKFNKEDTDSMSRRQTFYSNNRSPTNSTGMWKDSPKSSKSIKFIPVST
T1 sequence (P30560 whole entry): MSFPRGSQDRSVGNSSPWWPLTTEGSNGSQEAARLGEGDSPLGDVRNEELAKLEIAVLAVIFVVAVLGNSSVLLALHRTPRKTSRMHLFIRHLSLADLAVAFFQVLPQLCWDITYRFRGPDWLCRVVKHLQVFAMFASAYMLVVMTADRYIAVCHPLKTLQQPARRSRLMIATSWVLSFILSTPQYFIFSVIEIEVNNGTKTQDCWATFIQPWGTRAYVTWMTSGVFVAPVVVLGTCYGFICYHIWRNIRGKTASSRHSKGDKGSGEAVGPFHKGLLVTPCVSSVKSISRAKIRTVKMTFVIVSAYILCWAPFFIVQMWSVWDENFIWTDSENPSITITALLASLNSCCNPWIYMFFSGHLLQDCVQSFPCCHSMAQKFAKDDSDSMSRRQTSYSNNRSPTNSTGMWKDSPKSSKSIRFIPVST

SMILES	AVP vasopressure inhibition effect after 8 hours since administration (V1a receptor)	maximum vasopressure inhibition rate (V1a receptor) [%]	Toxicity expressing dose (male ICR mice) [mg/kg]	Ki [1] [nM]	Ki [2] [nM]
CCCN(C)CCCCOc1cc(C(=O)N2CC[C@H](C)Nc3ccccc32)ccc1-c1ccc2[nH]ccc2c1 [117 fumarate]	significant AVP vasopressure inhibition effect	77.7	>300	–	–
CCCCN1CCN(CCCOc2cc(C(=O)N3CC[C@H](C)Nc4ccccc43)ccc2-c2ccc3[nH]ccc3c2)CC1 [122 maleate]	significant AVP vasopressure inhibition effect	67.3	>300	–	–
CNc1ccc(-c2ccc(C(=O)N3CC[C@H](C)Nc4ccccc43)cc2OCCCN2C(=O)CNC2=O)cc1 [Example 106, 3-[3-[[4′-(methylamino)-4-[[(4S)-4-methyl-2,3,4,5-tetrahydro-1H-1,5-benzodiazepin-1-yl]carbonyl][1,1′-biphenyl]-2-yl]oxy]propyl]-2,4-imidazolidinedion]	–	–	–	0.14	2
C[C@H]1CCN(C(=O)c2ccc(-c3ccc4[nH]ccc4c3)c(C(=O)OCCCN3CCN(C)CC3)c2)c2ccccc2N1 [Example 136, 3-(4-methyl-1-piperazinyl)propyl 2-(1H-indol-5-yl)-5-[[(4S)-4-methyl-2,3,4,5-tetrahydro-1H-1,5-benzodiazepin-1-yl]carbonyl]benzoate]	–	–	–	0.23	16
CCCN(C)CCCOc1cc(C(=O)N2CC[C@H](C)Nc3ccccc32)ccc1-c1ccc(NCC)cc1 [Example 129, N-ethyl-2′-[3-[methyl(propyl)amino]propoxy]-4′-[[(4S)-4-methyl-2,3,4,5-tetrahydro-1H-1,5-benzodiazepin-1-yl]carbonyl][1,1′-biphenyl]-4-amine]	–	–	–	0.4	88
C[C@H]1CCN(C(=O)c2ccc(-c3ccc4[nH]ccc4c3)c(C(=O)OCCCN(C)C)c2)c2ccccc2N1 [Example 120, 3-(dimethylamino)propyl 2-(1H-indol-5-yl)-5-[[(4S)-4-methyl-2,3,4,5-tetrahydro-1H-1,5-benzodiazepin-1-yl]carbonyl]benzoate]	–	–	–	0.2	93
C[C@H]1CCN(C(=O)c2ccc(-c3ccc4[nH]ccc4c3)c(NC(=O)N3CCOCC3)c2)c2ccccc2N1 [Example 89, N-[2-(1H-indol-5-yl)-5-[[(4S)-4-methyl-2,3,4,5-tetrahydro-1H-1,5-benzodiazepin-1-yl]carbonyl]phenyl]-4-morpholine carboxamide]	–	–	–	0.29	19
CCCN(C)CCCOc1cc(C(=O)N2CC[C@H](C)Nc3ccccc32)ccc1-c1ccc(OC)cc1 [Example 131, N-[3-[[4′-methoxy-4-[[(4S)-4-methyl-2,3,4,5-tetrahydro-1H-1,5-benzodiazepin-1-yl]carbonyl][1,1′-biphenyl]-2-yl]oxy]propyl]-N-methyl-N-propylamine]	–	–	–	0.26	83
C[C@H]1CCN(C(=O)c2ccc(-c3ccc4[nH]ccc4c3)c(OCCCN)c2)c2ccccc2N1 [Example 38, 3-[2-(1H-indol-5-yl)-5-[[(4S)-4-methyl-2,3,4,5-tetrahydro-1H-1,5-benzodiazepin-1-yl]carbonyl]phenoxy]propylamine]	–	–	–	0.086	11
CCCCN(C)CCCOc1cc(C(=O)N2CC[C@H](C)Nc3ccccc32)ccc1-c1ccc2[nH]ccc2c1 [Example 114, N-[3-[2-(1H-indol-5-yl)-5-[[(4S)-4-methyl-2,3,4,5-tetrahydro-1H-1,5-benzodiazepin-1-yl]carbonyl]phenoxy]propyl]-N-methyl-1-butaneamine]	–	–	–	0.22	18
